Test results: US9212178B2, “Substituted pyrimidine compounds and their use as SYK inhibitors” (Genosco, priority 2013, dated 2015)
pIC50: −log10 of the molar value. Read-outs that look alike come from different tables or passages of the source.

What was measured:
full-length human SYK = full-length human SYK (Homo sapiens (Human), UniProt P43405); test: Inhibition of enzymatic SYK kinase activity (LANCE Ulight TK peptide); assay type: biochemical; conditions: ATP at Km (15 uM), 30 min pre-incubation
Protocol: Compounds of the present invention were assayed to measure their capacity to inhibit a spleen tyrosine kinase (SYK).
Compounds of the invention were initially diluted to 10 mM in 100% DMSO (CALBIOCHEM™) for storage and made into kinase buffer solution to create a compound concentration ranging from 1 uM and 10 uM. Serial dilutions of compounds of the invention were dispensed into a 96-well plate (GREINER BIOSCIENCES™) at 6 μL each. Purified full-length human SYK (CARNA BIOSCIENCES™) were diluted in kinase buffer and added to the compound solutions and pre-incubated for 30 minutes at room temperature. […] The reaction mixture was incubated for 1 hour. Following the incubation, the stop solution made with EDTA, water, and Lance detection buffer ([…]™) was added (12 μL each) to stop phosphorylation.

OCI-LY1 = test: DLBCL cell proliferation, ATPLite assay; assay type: cell-based, human; conditions: for pIC50: OCI-LY1, 72 hours, read-out: Inhibition of proliferation IC50; for Inhibition of proliferation (in words): OCI-LY1
Description: (§1) Several lines of evidence support the role of B cell receptor (BCR)-mediated survival signals in certain B cell malignancies such as non-Hodgkin lymphomas (NHL) including diffuse large B cell lymphoma (DLBCL). B cell receptor (BCR) signaling pathway components represent promising treatment targets in diffuse large B cell lymphoma (DLBCL) and additional B cell tumors. In order to address whether SYK inhibitor of Compounds of Formula (I), cellular viability of diffuse large B cell lymphoma (DLBCL) cells was measured on treatment of a series of concentration of SYK inhibitor.
(§2) The DLBCL cells, SUDHL4, SUDHL6 and OCI-LY1 […] were obtained from the American Type Culture Collection (ATCC, Manassas, Va., USA) or DSMZ (Braunschweig, Germany). […] The SUDHL4, SUDHL6 and OCI-LY1 cells were seeded at 1×10^5 cells/100 μL/well into 96 well culture plate, and serially diluted compound was then added. After an 72 hours of incubation period at 37° C., cells were subjected to an ATPLite assay (PerkinElmer) to determine the cytotoxic effects of the compound. The IC50 value of the test compound was calculated at Gradpad Prism 5 unless otherwise specified.

SUDHL6 = test: DLBCL cell proliferation, ATPLite assay; assay type: cell-based, human; conditions: for pIC50: SUDHL6, 72 hours, read-out: Inhibition of proliferation IC50; for Inhibition of proliferation (in words): SUDHL6
Description: as §1, §2

SUDHL4 = test: DLBCL cell proliferation, ATPLite assay; assay type: cell-based, human; conditions: for pIC50: SUDHL4, 72 hours, read-out: Inhibition of proliferation IC50; for Inhibition of proliferation (in words): SUDHL4
Description: as §1, §2

[1] = test system: Human peripheral CD19+ B cells; test: Cellular SLE model: immunoglobulin production in human peripheral B cells stimulated via TLR9 (ODN2006); assay type: cell-based; conditions: for pIC50: human B cell, ODN2006 and IL-2, 6 days; for Inhibition of IgG and IgM production (in words): TLR9 stimulated by ODN2006 and IFNα
Description: Systemic lupus erythematosus (SLE) is a chronic inflammatory autoimmune disease and can affect several organs and systems. It is characterized by high production of autoantibodies against nuclear compounds. TLR7/8/9 are responsible for nucleic acid recognition and they trigger proinflammatory responses through activation of […] and Type I IFN production, making a bridge between the innate and the adaptive immune systems. TLR9 signaling pathway was adopted for cellular SLE model using human peripheral B cells to test potency of SYK inhibitor of Formula (I).
Human peripheral CD19+ B cells from an adult healthy donor were purchased from Sanguine Biosciences (Sherman Oaks, Calif.). B cells were cultured in 96-well plates with complete RPMI 1640 medium (Corning, Tewksbury, Mass.) supplemented with 10% heat-inactivated FBS (Life Technologies, Grand Island, N.Y.) and penicillin/streptomycin (Corning). B cells were stimulated with 1 μM ODN2006 (InvivoGen, San Diego, Calif.) and 20 ng/ml IFNα (PBL Assay Science, Piscataway, N.J.) for 3 days for toll-like receptor-9 (TLR-9)-mediated B cell growth. To differentiate naïve B cells into plasma cells, peripheral B cells were differentiated with 50 nM ODN2006 and 10 ng/ml IL-2 in a presence of various concentrations of SYK inhibitors for 6 days. Culture supernatants were collected and IgM and IgG production was measured using human IgM or IgG ELISA kit (BioLegend).

THP-1 cells = test: SYK-dependent TNF-α release assay (IgG stimulation), ELISA; assay type: cell-based; conditions: THP-1 cells on human IgG-coated plate, 18 hours; read-out: TNF-α release inhibition, IgG stimulation IC50
Protocol: In order to address cellular potency of Compounds of Formula (I), TNF-a production was measured on treatment of a series of concentration of SYK inhibitor in THP-1 cells.
For SYK-dependent TNF-α release assay (i.e., via IgG stimulation), THP-1 cells derived from human monocytic cells were obtained from the American Type Culture Collection (ATCC, Manassas, Va.). This cell line was maintained with a Roswell Park Memorial Institute (RPMI) medium (GIBCO) containing 10% fetal bovine serum (FBS; GIBCO) and 0.05 mM solution of 2-mercaptoethanol. The THP-1 cells were seeded at 1×10^5 cells/100 μL/well into human IgG (10 ng/well, INVITROGEN)-coated 96 well culture plate, and serially diluted compound was then added. After an 18 hours of incubation period at 37° C., supernatants were collected for the determination of the TNF-α level by enzyme-linked immunosorbent assay (ELISA), and the remaining cells were subjected to an MTT (yellow tetrazolium salt) assay to determine the cytotoxic effects of the compound. The IC50 value of the test compound was calculated at Gradpad Prism 5 unless otherwise specified.

[2] = test system: Collagen-induced arthritis in DBA/1J mice; test: Collagen-induced arthritis (CIA) mouse model, macroscopic paw scoring; assay type: in vivo; conditions: for CIA index (arthritic score of test group / vehicle group x 100): 30 mg/kg/day once daily oral gavage, vehicle = 100.0
Protocol: CIA mouse model was induced in DBA/1J mice (Japan Charles River Breeding Laboratories, Kanagawa, Japan) with 5 to 6 weeks of age. Animals were maintained at a temperature of 20±5° C. and a relative humidity of 40˜60%.
Bovine type II collagen (CII, 2 mg/ml dissolved in 0.05 M acetic acid, Chondrex, Redmond, Wash.) was emulsified in equal volumes of Freund's complete adjuvant (4 mg/ml of Mycobacterium tuberculosis strain H37Ra; Chondrex, Redmond, Wash.). On day 0, mice were immunized intradermally at the base of the tail with 100 μg bovine type II collagen emulsified in Freund's complete adjuvant. On day 21, all mice were boosted with an intraperitoneal injection of 100 μg type II collagen.
These compounds were dissolved in NMP/20% cyclodextrin/PEG400 5:45:50 solution and filtered by […] membrane filter. All the test substances were administered once daily at 30 mg/kg/day by oral gavage for 3 weeks.
The gradual onset of arthritis usually starts approximately 3 weeks after initial immunization. The progression of CIA was evaluated by the macroscopic scoring of paws at intervals of 3 days. The edema and swelling of each paw was scored visually as was described previously, using a scale of 0-4, where 0=no visible abnormalities, 1=mild redness or swelling of the wrist or up to three inflamed digits, 2=more than three inflamed digits or moderate redness and swelling of the ankle or wrist, 3=severe ankle and wrist inflammation, 4=extensive ankle and wrist inflammation including all digits. Therefore, the score of each mouse was calculated for the four limbs (maximum total score of 16 for each mouse) (Courtenay J S, Dallman M J, Dayan A D, et al., Immunisation against heterologous type II collagen induces arthritis in mice, Nature, 1980, 283, 666-668)
Arthritis was considered to be present if the score was >2. The blind scoring was performed by four independent observers. In this study, data was calculated by following equation. […] Results

[3] = 144 h, read-out: Inhibition of immunoglobulin production, IgG IC50
[4] = 144 h, read-out: Inhibition of immunoglobulin production, IgM IC50

Row | Structure (SMILES) | pIC50 (OCI-LY1; Homo sapiens) | Inhibition of proliferation (in words) (OCI-LY1) | pIC50 (SUDHL6; Homo sapiens, SU-DHL-6) | Inhibition of proliferation (in words) (SUDHL6) | pIC50 (SUDHL4; Homo sapiens, SU-DHL-4) | Inhibition of proliferation (in words) (SUDHL4) | pIC50 [1, 3] | pIC50 [1, 4] | Inhibition of IgG and IgM production (in words) [1] | pIC50 (THP-1 cells) | also measured
1 | Cn1cc(C(=O)C2CC2)c2cc(Nc3nccc(-n4cc(CN5C[C@H](O)CO5)cn4)n3)ccc21 [Compound 30, (S)-cyclopropyl(5-(4-(4-((4-hydroxyisoxazolidin-2-yl)methyl)-1H-pyrazol-1-yl)pyrimidin-2-ylamino)-1-methyl-1H-indol-3-yl)methanone] | 5.64 | potent inhibition | 6.03 | potent inhibition | 6.02 | potent inhibition | 6.73 | 7.05 | potent inhibition | 7.77 | pIC50 (full-length human SYK): 8.61
2 | COc1cc(Nc2ncc(F)c(Nc3ccc4c(n3)NC(=O)C(C)(C)O4)n2)cc(OC)c1OC [Compound R406, reference compound] | – | – | – | – | – | – | – | – | – | 6.66 | pIC50 (OCI-LY1): 5.41; pIC50 (SUDHL6): 5.49; pIC50 (SUDHL4): 5.44; pIC50 ([1]; read-out: Inhibition of immunoglobulin production, IgG IC50): 6.43; pIC50 ([1]; read-out: Inhibition of immunoglobulin production, IgM IC50): 6.74
3 | Cc1nn(-c2ccnc(Nc3ccc4c(c3)c(C(=O)C3CC3)cn4C)n2)cc1CN1C[C@H](O)CO1 [Compound 1, (S)-cyclopropyl(5-(4-(4-((4-hydroxyisoxazolidin-2-yl)methyl)-3-methyl-1H-pyrazol-1-yl)pyrimidin-2-ylamino)-1-methyl-1H-indol-3-yl)methanone] | 5.74 | potent inhibition | 5.55 | potent inhibition | 5.97 | potent inhibition | 6.53 | 6.63 | potent inhibition | 7.28 | Inhibition in arthritis phenotype indicated by CIA, compared with R788 (in words) ([2]; 30 mg/kg/day oral, versus R788): stronger inhibition; CIA index (arthritic score of test group / vehicle group x 100) ([2]; day 4): 3.0 ± 2.8%; CIA index (arthritic score of test group / vehicle group x 100) ([2]; day 7): 24.0 ± 9.2%; CIA index (arthritic score of test group / vehicle group x 100) ([2]; day 10): 40.1 ± 13.8%; CIA index (arthritic score of test group / vehicle group x 100) ([2]; day 13): 36.2 ± 12.0%; CIA index (arthritic score of test group / vehicle group x 100) ([2]; day 17): 33.5 ± 10.5%; CIA index (arthritic score of test group / vehicle group x 100) ([2]; day 19): 33.6 ± 10.4%
